Test results taken from patent publication US20240228507A1, “GREEN SOLVENTS FOR CHEMICAL REACTIONS” (ECOLE POLYTECHNIQUE FÉDÉRALE DE LAUSANNE (EPFL), priority 2021, published 2024).

Legend:
[1] = Stability under acidic conditions; type: physicochemical
Flash point = type: physicochemical
[2] = Kamlet-Abboud-Taft solvatochromic parameters (dye absorption spectra); type: physicochemical; settings: for Kamlet-Taft Parameters Π* / Kamlet-Taft Parameters α / Kamlet-Taft Parameters β: Table 1a; for Kamlet-Abboud-Taft α / Kamlet-Abboud-Taft β / Kamlet-Abboud-Taft π: Table 1c; for Kamlet-Taft Π* / Kamlet-Taft α / Kamlet-Taft β: Table 4
Excerpt: Determination of the Kamlet-Abboud-Taft parameters was based on the absorption spectrum of two dyes (N,N-diethyl-4-nitroaniline and 4-nitroaniline) in different solvents, that allow calculating corresponding values using known procedures (P. G. Jessop, D. A. Jessop, D. Fu and L. Phan, Green Chem., 2012, 14, 1245-1259).

[3] = Stability of DFX under basic conditions (GC-FID/GC-MS, colour change); type: physicochemical; settings: Pyridine and KOAc
Procedure: To assess DFX stability under basic conditions, we tested a series of organic and inorganic bases at 80° C. and 110° C. for maximum 48 h (Table 6). Visual color change compared to a blank solution of pure DFX indicated some reactions were occurring. After 0.5 h, 24 h, 48 h of exposure, the samples were injected in GC-FID and GC-MS and the area of DFX was compared with the one in blank sample using decane as the internal standard. As a result of this experiment, we identified some potential limitations of this emerging solvent. Specifically, inorganic bases such as K2CO3, NaOH, CsCO3 led to the highest extent of degradation (maximum 21% after 48 h). Triethylamine (NEt3) caused less than 5% of degradation, but led to the formation of dark solution as well as K2CO3, NaOH, CsCO3. Probably, impurities existing in DFX (95% pure) also contribute to a color change as they could interact with bases.

[4] = Maximum absorbance of Nile Red dye in the solvent; type: physicochemical
Procedure: The absorbance spectra of 4-nitroaniline dye (cf. FIG. 10a), N,N-diethyl-4-nitroaniline dye (cf. FIG. 10b) as well as of Nile Red dye (cf. FIG. 10c) in the compounds 1, 3, 4 and 24 of claim 13 as well as in DMSO were measured. Nile Red absorbance is dependent on polarity and acidity, but as acidity is 0 in the case of aprotic solvents, the value is only polarity dependent. This differs from π*, which is both polarity and polarizability dependent. The maximum absorbance of Nile Red in 1, 3, 4 and 24 was measured to be 543, 536, 534.5 and 535 nm respectively. […] Values for 3, 4 and 24 are similar to conventional medium polarity aprotic solvents such as dichloromethane (535.2 nm) and acetonitrile (531.6 nm).
The Nile red value for DEX:PG is 553 nm, indicating similar chemical behavior to Methanol (550 nm) and Ethanolamine (557 nm).

[5] = Miscibility with different solvents; type: physicochemical; set-up: key: “*” indicating—not miscible; settings: Table 1d; blank cell = miscible

## CC(C)C1OCC2OC3OC(C(C)C)OC3C2O1 (centres unmarked) [DIBX, Diisobutylxylose]
[1]
  sensitivity to strong acids (visual, orange-colored solution): showed sensitivity to strong acids

## O=C1CC[C@H]2CO[C@@H]1O2 [Cyrene]
Flash point
  Flash point: 108 °C
[2]
  Kamlet-Taft Parameters Π*: 0.93
  Kamlet-Taft Parameters α: 0.00
  Kamlet-Taft Parameters β: 0.61
[1]; 95° C. or 70° C., 0.8M HCl, 15 min
  stability under acidic conditions: extensive degradation

## CCCC1OCC2OC3OC(CCC)OC3C2O1 (centres unmarked) [DBX, Dibutylxylose]
[1]
  sensitivity to strong acids (visual, orange-colored solution): showed sensitivity to strong acids

## CC(C)(C)C1OCC2OC3OC(C(C)(C)C)OC3C2O1 (centres unmarked) [DNPX, Dineopentylxylose]
[1]
  sensitivity to strong acids (visual, orange-colored solution): showed sensitivity to strong acids

## CCCCN1CCCC1=O [N-butylpyrrolidinone]
[2]
  Kamlet-Taft Parameters Π*: 0.77
  Kamlet-Taft Parameters α: 0.00
  Kamlet-Taft Parameters β: 0.92

## O=C1OCCO1 [Ethylene carbonate]
[2]
  Kamlet-Taft Parameters Π*: 0.99
  Kamlet-Taft Parameters α: 0.00
  Kamlet-Taft Parameters β: 0.32

## CC1OC[C@H]2O[C@@H]3OC(C)O[C@@H]3[C@H]2O1 (some centres unmarked) [Compound 2]
other
  melting point: 60 °C

## C1COCCO1 [1,4-dioxane]
[2]
  Kamlet-Taft Parameters Π*: 0.55
  Kamlet-Taft Parameters α: 0.00
  Kamlet-Taft Parameters β: 0.37
  Kamlet-Abboud-Taft α: 0
  Kamlet-Abboud-Taft β: 0.37
  Kamlet-Abboud-Taft π: 0.55

## C1OC[C@H]2O[C@@H]3OCO[C@@H]3[C@H]2O1 [Compound 1, Diformylxylose]
other
  melting point: 48 °C
[3]
  effect on stability: didn't show any significant effect

## COC(=O)C1OC[C@H]2O[C@@H]3OC(C(=O)OC)O[C@@H]3[C@H]2O1 (some centres unmarked) [Compound 14]
other
  melting point: 83 °C

## CO [Methanol, methanol]
[4]
  maximum absorbance of Nile Red: 550 nm

## CC1CCCO1 (centres unmarked) [Compound 2-MeTHF, 2-methyltetrahydrofuran]
[2]
  Kamlet-Abboud-Taft α: 0
  Kamlet-Abboud-Taft β: 0.58
  Kamlet-Abboud-Taft π: 0.53

## NCCO [Ethanolamine]
[4]
  maximum absorbance of Nile Red: 557 nm

## C[S+](C)[O-] [DMSO, dimethyl sulfoxide]
[2]
  Kamlet-Taft Parameters Π*: 1.00
  Kamlet-Taft Parameters α: 0.00
  Kamlet-Taft Parameters β: 0.74

## COC(C)(C)C [MTBE]
Flash point
  Flash point: −28 °C

## CC(C)=O [Acetone, acetone]
[2]
  Kamlet-Taft Π*: 0.71
  Kamlet-Taft α: 0.08
  Kamlet-Taft β: 0.48

## CN(C)C=O [DMF, N,N-dimethylformamide]
[4]
  maximum absorbance of Nile Red: 541 nm

## CC(C)C1OC[C@H]2O[C@@H]3OC(C(C)C)O[C@@H]3[C@H]2O1 (some centres unmarked) [Compound 4]
other
  melting point: 31 °C
[4]
  maximum absorbance of Nile Red: 534.5 nm
[2]
  Kamlet-Abboud-Taft α: 0
  Kamlet-Abboud-Taft β: 0.51
  Kamlet-Abboud-Taft π: 0.63

## O=S1(=O)CCCC1 [Sulfolane]
[4]
  maximum absorbance of Nile Red: 545 nm
[2]
  Kamlet-Taft Parameters Π*: 0.98
  Kamlet-Taft Parameters α: 0.00
  Kamlet-Taft Parameters β: 0.39

## CC1CCCO1 (centres unmarked) [Compound 2-Me-THF]
Flash point
  Flash point: −10 °C

## CC#N [Acetonitrile, acetonitrile]
[4]
  maximum absorbance of Nile Red: 531.6 nm
[2]
  Kamlet-Taft Π*: 0.8
  Kamlet-Taft α: 0.35
  Kamlet-Taft β: 0.37

## CCC1OCC2OC3OC(CC)OC3C2O1 (centres unmarked) [DPX, Dipropylxylose]
[1]
  sensitivity to strong acids (visual, orange-colored solution): showed sensitivity to strong acids

## CC1(C)OC[C@H]2O[C@@H]3OC(C)(C)O[C@@H]3[C@H]2O1 [Compound 11]
other
  melting point: 43 °C

## CCCC1OC[C@H]2O[C@@H]3OC(CCC)O[C@@H]3[C@H]2O1 (some centres unmarked) [Compound 24]
other
  melting point: 24.5 °C
[4]
  maximum absorbance of Nile Red: 535 nm
[2]
  Kamlet-Abboud-Taft α: 0
  Kamlet-Abboud-Taft β: 0.56
  Kamlet-Abboud-Taft π: 0.65
[5]
  Miscibility with Water: *

## C1CCOC1 [THF, Tetrahydrofuran]
[2]
  Kamlet-Abboud-Taft α: 0
  Kamlet-Abboud-Taft β: 0.55
  Kamlet-Abboud-Taft π: 0.58

## CCC1OC[C@H]2O[C@@H]3OC(CC)O[C@@H]3[C@H]2O1 (some centres unmarked) [Compound 3]
other
  melting point: 34 °C
[4]
  maximum absorbance of Nile Red: 536 nm
[2]
  Kamlet-Abboud-Taft α: 0
  Kamlet-Abboud-Taft β: 0.63
  Kamlet-Abboud-Taft π: 0.68

## COC1CCCC1 [CPME, cyclopentyl methyl ether]
Flash point
  Flash point: −1 °C

## CC1CCC(=O)O1 (centres unmarked) [GVL, -valerolactone]
Flash point
  Flash point: 96.1 °C
[2]
  Kamlet-Taft Parameters Π*: 0.83
  Kamlet-Taft Parameters α: 0.00
  Kamlet-Taft Parameters β: 0.60

## C1CCCCC1 [Cyclohexane, cyclohexane]
[2]
  Kamlet-Abboud-Taft α: 0
  Kamlet-Abboud-Taft β: 0
  Kamlet-Abboud-Taft π: 0

## ClCCl [dichloromethane]
[4]
  maximum absorbance of Nile Red: 535.2 nm

## CC(C)(C)C1OC[C@H]2O[C@@H]3OC(C(C)(C)C)O[C@@H]3[C@H]2O1 (some centres unmarked) [Compound 5]
other
  melting point: 120 °C
